Test results taken from patent US10183950B2, “Thienopyrimidine inhibitors of atypical protein kinase C” (Cancer Research Technology Limited, priority 2011, dated 2019).
pIC50: −log10 of the molar value.

Each compound was assayed against T1, kinase-domain human PKCι (Homo sapiens, UniProt P41743) (assay: PKCι IC50 IMAP fluorescence polarisation assay, kinase-domain enzyme). Conditions: kinase domain PKCi at 2 μM ATP; read-out: IC50 in IMAP assay against kinase domain PKCi (Activity).
T1 construct: Recombinant, kinase-domain human PKCι is expressed and purified in-house; made in house
T1 sequence (P41743 254-522 limits assumed): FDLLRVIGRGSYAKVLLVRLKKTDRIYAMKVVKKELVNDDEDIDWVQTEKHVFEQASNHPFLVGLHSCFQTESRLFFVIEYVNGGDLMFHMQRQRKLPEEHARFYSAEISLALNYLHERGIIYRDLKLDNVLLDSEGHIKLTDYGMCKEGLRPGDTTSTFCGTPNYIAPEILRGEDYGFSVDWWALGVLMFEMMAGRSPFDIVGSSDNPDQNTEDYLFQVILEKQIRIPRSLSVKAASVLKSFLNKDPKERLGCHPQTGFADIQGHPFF
Assay type: biochemical
Procedure: Assays are based on the ability of PKCι to phosphorylate a commercially available peptide substrate in vitro. […] Recombinant, full-length human PKCι expressed in Sf21 insect cells is also commercially available. Recombinant, kinase-domain human PKCι is expressed and purified in-house.
The procedure below explains how dose response curves for inhibitors of PKCι are obtained.
Compounds to be tested are dissolved in 100% DMSO. […] 1 μl is plated into 384 well black low-binding flat bottomed assay plates which are used immediately. Dilutions and additions of compound to assay plates are carried out using Matrix WellMate® and Matrix PlateMate® Plus liquid handling systems.
The final concentration of peptide substrate in the assay is 100 nM. […] Relevant controls are included, namely no compound and no enzyme. […] The reaction is allowed to incubate for 60 minutes at room temperature, before the reaction is stopped and developed by the addition of 20 μl IMAP™ development reagent (Molecular Devices). IMAP development reagent consists of 0.25% (v/v) IMAP progressive binding reagent, 17% (v/v) IMAP progressive binding buffer A and 3% (v/v) IMAP progressive binding buffer B. The plates are then incubated for 2 hours at room temperature before being read using an appropriate plate reader, for example a Molecular Devices HT Analyst or a BMG Pherastar.

Row | Structure (SMILES) | pIC50
1 | NCCNc1nc(-c2ccncc2F)nc2sc3c(c12)CCCC3 [compound 97, N*1*-[2-(3-fluoro-pyridin-4-yl)-5,6,7,8-tetrahydro-benzo[4,5]thieno [2,3-d]pyrimidin-4-yl]-ethane-1,2-diamine] | 5.00 to 6.00
2 | CCCCN1CCN(c2nc(-c3ccncc3)nc3sc4c(c23)CCCC4)CC1 [compound 129, 4-(4-Butyl-piperazin-1-yl)-2-pyridin-4-yl-5,6,7,8-tetrahydro-benzo[4,5]thieno[2,3-d]pyrimidine] | 4.40 to 5.00
3 | NCCNc1nc(-c2ccncc2)nc2sc3c(c12)CCCCCC3 [compound 24, N*1*-(2-Pyridin-4-yl-5,6,7,8,9,10-hexahydro-11-thia-1,3-diaza-cycloocta[a]inden-4-yl)-ethane-1,2-diamine] | 6.00 to 7.00
4 | CC(C)CN1CCN(c2nc(-c3ccncc3)nc3sc4c(c23)CCCC4)CC1 [compound 134, 4-(4-Isobutyl-piperazin-1-yl)-2-pyridin-4-yl-5,6,7,8-tetrahydro-benzo[4,5]thieno[2,3-d]pyrimidine] | 4.40 to 5.00
5 | C[C@@H](N)CNc1nc(-c2cn[nH]c2)nc2sc3c(c12)CCCC3 [compound 188, (R)-N*1*-[2-(1H-Pyrazol-4-yl)-5,6,7,8-tetrahydro-benzo[4,5]thieno[2,3-d]pyrimidin-4-yl]-propane-1,2-diamine] | 5.00 to 6.00
6 | Brc1cccc(CN2CCN(c3nc(-c4ccncc4)nc4sc5c(c34)CCCC5)CC2)c1 [compound 127, 4-[4-(3-Bromo-benzyl)-piperazin-1-yl]-2-pyridin-4-yl-5,6,7,8-tetrahydro-benzo[4,5]thieno[2,3-d]pyrimidine] | 4.40 to 5.00
7 | CC(C)C[C@@H](N)CNc1nc(-c2ccncc2)nc2sc3c(c12)CCCC3 [compound 16, (R)-4-Methyl-N*1*-(2-pyridin-4-yl-5,6,7,8-tetrahydro-benzo[4,5]thieno[2,3-d]pyrimidin-4-yl)-pentane-1,2-diamine] | 5.00 to 6.00
8 | N[C@H](COc1nc(-c2ccncc2)nc2sc3c(c12)CCCC3)Cc1cccc2ccccc12 [compound 161, (S)-1-Naphthalen-1-ylmethyl-2-(2-pyridin-4-yl-5,6,7,8-tetrahydro-benzo[4,5]thieno[2,3-d]pyrimidin-4-yloxy)-ethylamine] | 5.00 to 6.00
9 | N[C@H](COc1nc(-c2ccncc2)nc2sc3c(c12)CCCC3)Cc1csc2ccccc12 [compound 177, (S)-1-Benzo[b]thiophen-3-ylmethyl-2-(2-pyridin-4-yl-5,6,7,8-tetrahydro-benzo[4,5]thieno[2,3-d]pyrimidin-4-yloxy)-ethylamine] | 4.40 to 5.00
10 | C[C@@H]1CN(c2nc(-c3ccncc3)nc3sc4c(c23)CCCC4)C[C@H](C)N1 [compound 9, 4-((3R,5S)-3,5-Dimethyl-piperazin-1-yl)-2-pyridin-4-yl-5,6,7,8-tetrahydro-benzo[4,5]thieno[2,3-d]pyrimidine] | 5.00 to 6.00
11 | N[C@@H](COc1nc(-c2ccncc2)nc2sc3c(c12)CCCC3)Cc1ccc2ccccc2c1 [compound 172, (R)-1-Naphthalen-2-ylmethyl-2-(2-pyridin-4-yl-5,6,7,8-tetrahydro-benzo[4,5]thieno[2,3-d]pyrimidin-4-yloxy)-ethylamine] | 4.40 to 5.00
12 | Cc1sc2nc(-c3ccncc3)nc(NC[C@@H](C)N)c2c1C [compound 38, (R)-N*1*-(5,6-Dimethyl-2-pyridin-4-yl-thieno[2,3-d]pyrimidin-4-yl)-propane-1,2-diamine] | 5.00 to 6.00
13 | CCc1cc2c(NC[C@@H](C)N)nc(-c3ccncc3)nc2s1 [compound 35, (R)-N*1*-(6-Ethyl-2-pyridin-4-yl-thieno[2,3-d]pyrimidin-4-yl)-propane-1,2-diamine] | 5.00 to 6.00
14 | c1cc(-c2nc(N[C@@H]3CCNC3)c3c4c(sc3n2)CCCC4)ccn1 [compound 19, (2-pyridin-4-yl-5,6,7,8-tetrahydro-benzo[4,5]thieno[2,3-d]pyrimidin-4-yl)-(R)-pyrrolidin-3-yl-amine] | 6.00 to 7.00
